Measured values: patent US20100267561A1, “HERBICIDAL PYRIDAZINONE DERIVATIVES” (priority 2007, published 2010)
Read-outs that look alike come from different tables or passages of the source.

Legend:
Format in all cases: in vivo
[1] = system: pigweed (Amaranthus retroflexus); test: Test A pre-/postemergence plant response; conditions: for pest or weed control at 31 g/ha / pest or weed control at 125 g/ha: Amaranthus retroflexus, 240 h, read-out: Plant response rating, Pigweed
Method in brief: (§1)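 Both pre- and postemergence treatment given concurrently; postemergence seedlings measured 2–10 cm at the one- to two-leaf stage. Visual injury, 0–100 scale versus untreated, at ~10 days.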

[2] = system: large crabgrass (Digitaria sanguinalis); test: Test A pre-/postemergence plant response; conditions: for pest or weed control at 31 g/ha / pest or weed control at 125 g/ha: Digitaria sanguinalis, 240 h, read-out: Plant response rating, Crabgrass, Large
Method in brief: as §1

[3] = system: barnyardgrass (Echinochloa crus-galli); test: Test A pre-/postemergence plant response; conditions: for pest or weed control at 31 g/ha / pest or weed control at 125 g/ha: Echinochloa crus-galli, 240 h, read-out: Plant response rating, Barnyardgrass
Method in brief: as §1

[4] = system: wheat (Triticum aestivum); test: Test A pre-/postemergence plant response; conditions: for plant injury at 31 g/ha / plant injury at 125 g/ha: Triticum aestivum, 240 h, read-out: Plant response rating, Wheat
Method in brief: as §1

corn (Zea mays) = test: Test A pre-/postemergence plant response; conditions: for Corn plant response rating (crop injury, 0 = no effect, 100 = complete kill) at 31 g/ha / Corn plant response rating (crop injury, 0 = no effect, 100 = complete kill) at 125 g/ha: Zea mays, 240 h
Method in brief: as §1

[5] = system: giant foxtail (Setaria faberi); test: Test A pre-/postemergence plant response; conditions: for pest or weed control at 31 g/ha / pest or weed control at 125 g/ha: Setaria faberi, 240 h, read-out: Plant response rating, Foxtail, Giant
Method in brief: as §1

[6] = system: canarygrass (Phalaris minor); test: Test B postemergence plant response; conditions: for Canarygrass plant response rating: postemergence, 0-100 scale; for Plant response rating, Canarygrass: Postemergence
Method in brief: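 Compounds applied after emergence to 2–18 cm plants; response read visually 13–15 days later on 0 (none) to 100 (complete control); a dash marks no result.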

[7] = Postemergence, 31 g ai/ha, 0 to 100 scale, 0 no effect, 100 complete control
[8] = Postemergence, 125 g ai/ha, 0 to 100 scale, 0 no effect, 100 complete control
[9] = Preemergence, 31 g ai/ha, 0 to 100 scale, 0 is no effect, 100 is complete control
[10] = Preemergence, 125 g ai/ha, 0 to 100 scale (0 no effect, 100 complete control)
[11] = 62 g ai/ha, scale 0 to 100, 0 no effect, 100 complete control
[12] = post-emergence, Postemergence, 31 g ai/ha, 0 to 100 scale (0 no effect, 100 complete control)
[13] = post-emergence, Postemergence, 125 g ai/ha, 0 to 100 scale, 0 no effect, 100 complete control
[14] = pre-emergence, Preemergence, 31 g ai/ha, 0 to 100 scale, 0 is no effect, 100 is complete control
[15] = pre-emergence, Preemergence, 125 g ai/ha, 0 to 100 scale (0 no effect, 100 complete control)

CCc1cc(-c2ccc(Br)cc2)nn1-c1c(O)c(C)nn(C)c1=O [Compound 74]
100: Plant response rating, Crabgrass, Large [2, 8] | Plant response rating, Barnyardgrass [3, 7] | Plant response rating, Barnyardgrass [3, 8] | Plant response rating, Barnyardgrass [3, 9] | Plant response rating, Barnyardgrass [3, 10] | Plant response rating, Corn (corn (Zea mays); [8]) | Plant response rating, Foxtail, Giant [5, 8] | Plant response rating, Foxtail, Giant [5, 10] | Plant response rating, Canarygrass ([6]; 31 g ai/ha, scale 0 to 100) | Plant response rating, Canarygrass [6, 11]
80: Plant response rating, Wheat [4, 8] | Canarygrass plant response rating ([6]; 8 g ai/ha)
50: Plant response rating, Crabgrass, Large [2, 9]
90: Plant response rating, Crabgrass, Large [2, 10] | Plant response rating, Foxtail, Giant [5, 9] | Plant response rating, Canarygrass ([6]; 16 g ai/ha, scale 0 to 100)
0: Plant response rating, Pigweed [1, 7] | Plant response rating, Pigweed [1, 8] | Plant response rating, Pigweed [1, 9] | Plant response rating, Pigweed [1, 10]
70: Plant response rating, Wheat [4, 7] | Plant response rating, Foxtail, Giant [5, 7]
20: Plant response rating, Wheat [4, 9]
60: Plant response rating, Crabgrass, Large [2, 7] | Plant response rating, Wheat [4, 10] | Plant response rating, Corn (corn (Zea mays); [7]) | Plant response rating, Corn (corn (Zea mays); [10])

Cc1nn(C)c(=O)c(-c2nc(-c3ccc(Cl)cc3)sc2C)c1O [Compound 79, 4-[2-(4-chlorophenyl)-5-methyl-4-thiazolyl]-5-hydroxy-2,6-dimethyl-3(2H)-pyridazinone]
70%: pest or weed control at 125 g/ha [5, 13]
85: Plant response rating, Canarygrass ([6]; 31 g ai/ha, scale 0 to 100)
55: Plant response rating, Canarygrass ([6]; 16 g ai/ha, scale 0 to 100)
60%: plant injury at 125 g/ha [4, 15]
95: Plant response rating, Canarygrass [6, 11]
100%: pest or weed control at 125 g/ha [2, 15] | pest or weed control at 125 g/ha [3, 15] | pest or weed control at 125 g/ha [5, 15]
30%: pest or weed control at 31 g/ha [2, 12] | Corn plant response rating (crop injury, 0 = no effect, 100 = complete kill) at 125 g/ha (corn (Zea mays); [13])
10%: pest or weed control at 31 g/ha [2, 14] | pest or weed control at 31 g/ha [5, 12] | pest or weed control at 31 g/ha [5, 14]
10: Canarygrass plant response rating ([6]; 8 g ai/ha)
0%: pest or weed control at 31 g/ha [1, 12] | pest or weed control at 125 g/ha [1, 13] | pest or weed control at 31 g/ha [1, 14] | pest or weed control at 125 g/ha [1, 15] | pest or weed control at 31 g/ha [3, 12] | pest or weed control at 31 g/ha [3, 14] | plant injury at 31 g/ha [4, 12] | plant injury at 31 g/ha [4, 14] | Corn plant response rating (crop injury, 0 = no effect, 100 = complete kill) at 31 g/ha (corn (Zea mays); [12]) | Corn plant response rating (crop injury, 0 = no effect, 100 = complete kill) at 31 g/ha (corn (Zea mays); [14])
20%: Corn plant response rating (crop injury, 0 = no effect, 100 = complete kill) at 125 g/ha (corn (Zea mays); [15])
50%: pest or weed control at 125 g/ha [2, 13] | pest or weed control at 125 g/ha [3, 13] | plant injury at 125 g/ha [4, 13]

COc1nn(C)c(=O)c(-n2nc(-c3ccc(Br)cc3)cc2C)c1O [Compound 82]
0: Plant response rating, Pigweed [1, 7] | Plant response rating, Pigweed [1, 8] | Plant response rating, Pigweed [1, 9] | Plant response rating, Pigweed [1, 10]
100: Plant response rating, Crabgrass, Large [2, 7] | Plant response rating, Crabgrass, Large [2, 8] | Plant response rating, Crabgrass, Large [2, 10] | Plant response rating, Barnyardgrass [3, 7] | Plant response rating, Barnyardgrass [3, 8] | Plant response rating, Barnyardgrass [3, 10] | Plant response rating, Wheat [4, 8] | Plant response rating, Corn (corn (Zea mays); [8]) | Plant response rating, Foxtail, Giant [5, 7] | Plant response rating, Foxtail, Giant [5, 8] | Plant response rating, Foxtail, Giant [5, 10] | Plant response rating, Canarygrass ([6]; 31 g ai/ha, scale 0 to 100) | Plant response rating, Canarygrass [6, 11]
95: Canarygrass plant response rating ([6]; 16 g ai/ha)
80: Plant response rating, Corn (corn (Zea mays); [7]) | Canarygrass plant response rating ([6]; 8 g ai/ha)
40: Plant response rating, Corn (corn (Zea mays); [9])
90: Plant response rating, Wheat [4, 7] | Plant response rating, Wheat [4, 10] | Plant response rating, Foxtail, Giant [5, 9]
50: Plant response rating, Crabgrass, Large [2, 9] | Plant response rating, Barnyardgrass [3, 9] | Plant response rating, Wheat [4, 9] | Plant response rating, Corn (corn (Zea mays); [10])
